Experimental data: patent US10856562B2, “Flavor composition and edible compositions containing same” (MARS, INCORPORATED, priority 2013, dated 2020)
Square brackets hold non-standard residues; d marks the D form. Ends that are not written are not given here. pGlu = O=C1CC[C@@H](C(=O)O)N1

Test system: panelists
Assay: Attribute perception scores of flavor enhancers in solution (Example 6)
Type: in vivo, human
Set-up: key to Metallic / Numbing / Atringent / Salt / Sweet / Sour / Bitter / Umami / Sour, mean evaluation score in solution / Numbing, mean evaluation score in solution / Astringent / Umami FF: 15-point intensity scale, 0 = none, 15 = very strong
Conditions: for Astringent / Bitter / Flinty/Mineral / Metallic / Numbing / Salt / Sour / Sweet / Umami / Umami FF / Atringent / Mineral/Flinty / Umami/brothy: solution
Experimental: Descriptive attributes (e.g., taste, flavor and chemical feeling factors) of three use levels of pGlu-Cys (FE-35), pGlu-Cys-Gly (FE-36), pGlu-Cys-Cys (FE-37), pGlu-Cys-Val (FE-38) and pGlu-Val-Cys (UE-30) flavor composition peptides were determined. The three use levels were as follows: 1.0 ppb, 10.0 ppb and 100.0 ppb.
Data was collected for the attributes of the product in-mouth for the use levels according to the following protocol: • The samples were analyzed for flavor by six to nine members of a panel, trained and experienced in flavor evaluation using the Spectrum™ method. Samples were evaluated across multiple panel sessions. • The strength of each attribute was rated on a 15-point scale, where 0=none and 15=very strong. • This scale incorporates the ability to use tenths of a point and therefore has the potential of 150 scale differentiations. • The scale may be expanded beyond 15 points to include extreme ratings if necessary.
A summary of the concentrations of NaCl, water and flavor composition peptides in the solution samples is described in table 24.
The panelists evaluated each sample for the attributes described by table 25.

[1] = 1.0 to 100 ppb, listed as FE 38
[2] = 10.0 ppb, mean evaluation score
[3] = 100.0 ppb, mean evaluation score
[4] = Concentration 1, MAX, 15-point scale
[5] = Concentration 1, MEAN, 15-point scale
[6] = Concentration 1, MIN, 15-point scale
[7] = Concentration 10, MAX, 15-point scale
[8] = Concentration 10, MEAN, 15-point scale
[9] = Concentration 10, MIN, 15-point scale
[10] = Concentration 100, MAX, 15-point scale
[11] = Concentration 100, MEAN, 15-point scale
[12] = Concentration 100, MIN, 15-point scale

Substance: [pGlu]-Cys-Val [FE-38]
- Mineral/Flinty aromatic in solution as the concentration increases (1.0 to 100 ppb): increases very slightly
- Salt perception level in solution as the concentration increases (1.0 to 100 ppb): increase very slightly in-mouth at 10 ppb
- Umami aromatic in solution as the concentration increases (1.0 to 100 ppb): increase very slightly in-mouth at 10 ppb
- Umami feeling factor in solution as the concentration increases (1.0 to 100 ppb): shows no distinct pattern
- Mineral/Flinty aromatic in solution as the concentration increases [1]: increase very slightly
- Salt perception level in solution as the concentration increases [1]: increase very slightly
- Umami aromatic in solution as the concentration increases [1]: increase very slightly
- Astringent (1.0 ppb, mean evaluation score): 0.0
- Bitter (1.0 ppb, mean evaluation score): 0.0
- Flinty/Mineral (1.0 ppb, mean evaluation score): 1.0
- Metallic (1.0 ppb, mean evaluation score): 0.0
- Numbing (1.0 ppb, mean evaluation score): 0.0
- Salt (1.0 ppb, mean evaluation score): 3.1
- Sour (1.0 ppb, mean evaluation score): 0.0
- Sweet (1.0 ppb, mean evaluation score): 0.0
- Umami (1.0 ppb, mean evaluation score): 0.2
- Umami FF (1.0 ppb, mean evaluation score): 0.7
- Astringent [2]: 0.0
- Bitter [2]: 0.2
- Flinty/Mineral [2]: 1.1
- Metallic [2]: 0.0
- Numbing [2]: 0.0
- Salt [2]: 3.7
- Sour [2]: 0.0
- Sweet [2]: 0.2
- Umami [2]: 0.5
- Umami FF [2]: 1.8
- Astringent [3]: 0.0
- Bitter [3]: 0.2
- Flinty/Mineral [3]: 1.3
- Metallic [3]: 0.0
- Numbing [3]: 0.0
- Salt [3]: 3.7
- Sour [3]: 0.0
- Sweet [3]: 0.2
- Umami [3]: 0.5
- Umami FF [3]: 1.7
- Atringent [4]: 0.0
- Bitter [4]: 0.0
- Metallic [4]: 0.0
- Mineral/Flinty [4]: 1.5
- Numbing [4]: 0.0
- Salt [4]: 3.5
- Sour [4]: 0.0
- Sweet [4]: 0.0
- Umami [4]: 1.0
- Umami/brothy [4]: 1.0
- Atringent [5]: 0.0
- Bitter [5]: 0.0
- Metallic [5]: 0.0
- Mineral/Flinty [5]: 1.0
- Numbing [5]: 0.0
- Salt [5]: 3.1
- Sour [5]: 0.0
- Sweet [5]: 0.0
- Umami [5]: 0.7
- Umami/brothy [5]: 0.2
- Atringent [6]: 0.0
- Bitter [6]: 0.0
- Metallic [6]: 0.0
- Mineral/Flinty [6]: 0.5
- Numbing [6]: 0.0
- Salt [6]: 2.8
- Sour [6]: 0.0
- Sweet [6]: 0.0
- Umami [6]: 0.0
- Umami/brothy [6]: 0.0
- Atringent [7]: 0.0
- Bitter [7]: 0.8
- Metallic [7]: 0.0
- Mineral/Flinty [7]: 1.5
- Numbing [7]: 0.0
- Salt [7]: 4.0
- Sour [7]: 0.0
- Sweet [7]: 1.0
- Umami [7]: 3.0
- Umami/brothy [7]: 1.0
- Atringent [8]: 0.0
- Bitter [8]: 0.2
- Metallic [8]: 0.0
- Mineral/Flinty [8]: 1.1
- Numbing [8]: 0.0
- Salt [8]: 3.7
- Sour [8]: 0.0
- Sweet [8]: 0.2
- Umami [8]: 1.8
- Umami/brothy [8]: 0.5
- Atringent [9]: 0.0
- Bitter [9]: 0.0
- Metallic [9]: 0.0
- Mineral/Flinty [9]: 0.8
- Numbing [9]: 0.0
- Salt [9]: 3.0
- Sour [9]: 0.0
- Sweet [9]: 0.0
- Umami [9]: 0.0
- Umami/brothy [9]: 0.0
- Atringent [10]: 0.0
- Bitter [10]: 0.8
- Metallic [10]: 0.0
- Mineral/Flinty [10]: 1.5
- Numbing [10]: 0.0
- Salt [10]: 4.0
- Sour [10]: 0.0
- Sweet [10]: 1.0
- Umami [10]: 3.8
- Umami/brothy [10]: 1.0
- Atringent [11]: 0.0
- Bitter [11]: 0.2
- Metallic [11]: 0.0
- Mineral/Flinty [11]: 1.3
- Numbing [11]: 0.0
- Salt [11]: 3.7
- Sour [11]: 0.0
- Sweet [11]: 0.2
- Umami [11]: 1.7
- Umami/brothy [11]: 0.5
- Atringent [12]: 0.0
- Bitter [12]: 0.0
- Metallic [12]: 0.0
- Mineral/Flinty [12]: 0.8
- Numbing [12]: 0.0
- Salt [12]: 3.5
- Sour [12]: 0.0
- Sweet [12]: 0.0
- Umami [12]: 0.5
- Umami/brothy [12]: 0.0
